Laboratory results: patent US10537575B2, “Phosphodiesterase inhibitors to repair brain and/or retinal injury in human newborns” (priority 2016, dated 2020)

Columns and labels:
[1] = test system: Long-Evans rat pups (neonatal HI); experiment: Cerebellum injury after neonatal HI; format: in vivo; settings: P30
Method: Neonatal HI was induced in male Long-Evans rat pups at postnatal day 10 (P10) by left common carotid ligation followed by a 2-hour exposure to 8% oxygen; sham operated rat pups served as the control. […] At P30, the rats were sacrificed, and the cerebellum was extracted. The internal granular layers and molecular layers of the cerebellum were measured across all groups on cresyl violet-stained cerebellum sections. Astrocytes expressing Vascular Endothelial Growth Factor (VEGF) in the internal granular layers and molecular layers were quantified using immunohistochemistry.

[2] = test system: Long-Evans rat pups (neonatal HI); experiment: White matter myelination, oligodendrocytes and neuroinflammation after neonatal HI; format: in vivo; settings: P30
Method: Neonatal HI was induced in male Long-Evans rat pups at postnatal day 10 (P10) by left common carotid ligation followed by 2-hour exposure to 8% oxygen. Sham operated rat pups served as control. […] At P30, rats were sacrificed and their brains extracted. Hematoxylin and eosin staining was performed to analyze the structure of the myelin sheath. Olig2 and CC-1 immunostaining were performed to assess the proportion of mature oligodendrocyte to total oligodendrocytes. GFAP, Iba1, and Mac2 immunostaining was used to label reactive astrocytes and activated microglia. Collagen IV was used to investigate microvessels. Corpus callosum and left external capsule were the 2 regions where these markers were assessed to evaluate “white matter”.

[3] = test system: Long-Evans rat pups (term neonatal HIE model); experiment: Microvessel density (collagen IV staining) at P30; format: in vivo; settings: HI, sildenafil 50 mg/kg, p<0.01
Method: In addition, using the fourth slide prepared for each animal, an immunohistochemistry with collagen IV staining also was used to assess microvessel density. Sections were labeled with an anti-collagen type IV antibody (EMD Millipore: AB769, Temecula, Calif., USA) (dilution 1:400, incubation time overnight at room temperature) (Tong X K et al., 2005). Then, these sections were incubated with the secondary antibody CyTM3-conjugated AffiniPure donkey anti-goat IgG (Cedarlane: 705-165-147, West Grove, Pa., USA) (dilution 1:400, incubation time 1 hour at room temperature). These sections were rinsed with tris-buffered saline and cover slipped with Vectashield Mounting media containing 4,6-diamidino-2-phenylindole (DAPI) (Vector Laboratories: H1200, Burlingame, Calif., USA) to visualize cell nuclei. To estimate microvessel density, single-layer immunoreactive blood vessels in all orientations were counted as individual microvessels. Collagen IV staining in large vessels with tunica media were disregarded in the microvessel counts (Hallene K L et al., 2006, Iwai M et al., 2007; Noguchi T et al., 2008; Rigau V et al., 2007; Wintermark P et al., 2013; Shaikh H et al., 2015). […] One investigator took pictures of the respective fields of view at 10× magnification.

[4] = test system: Long-Evans rat pups (neonatal HI); experiment: Hippocampal injury and neuroinflammation after neonatal HI; format: in vivo; settings: P30
Method: Neonatal HI was induced in male Long-Evans rat pups at postnatal day 10 (P10) by left common carotid ligation followed by 2-hour exposure to 8% oxygen. Sham operated rat pups served as control. […] At P30, rats were sacrificed and their brains extracted. CA1, CA3 and dentate gyrus (DG) areas of the ipsilateral hippocampus were analyzed for microgliosis (Iba1) and astrogliosis (GFAP), neuronal number (NeuN), and vascular density (collagen IV).

[5] = test system: Long-Evans rat pups (term neonatal HIE model); format: in vivo; settings: HI rat pups
Source text: The experiments were run in a dark environment (below 20 lux of illumination). The equipment consists of a 1.3 m-long glass plate with a dim fluorescent light coming from the side and beamed into the glass. The light reflected downwards by the rats' paws as they contact the glass floor is captured by a high-speed video camera placed under the walkway, and then transformed into a digital image ([…] et al., 2006; Hetze S et al., 2012; Lubjuhn J et al., 2009, […] et al., 2013, Wang Y et al., 2008). The walkway was 90 mm wide. The camera was positioned 40 cm below the walkway, and automatic detection settings were applied. The rat pups walked spontaneously at their own speed; the mother was systematically placed in the goal box to motivate the rat pups to run towards it. An intensity threshold was set to 0.1, the camera gain was set to 20, and the maximum allowed speed variation was set to 60%. A minimum of three quality runs per rat pups were acquired. Only uninterrupted runs were saved for analysis; runs, where animals turned or walked backwards, were excluded, and the animal got another try. […] Step sequence regularity index is a percent index for the degree of interlimb coordination during the gait, as measured by the number of normal step sequence patterns, multiplied by the number of paws and divided by the number of paw placements. […]

PDE6 = settings: known; cited from earlier work

CCCc1nn(C)c2c(=O)[nH]c(-c3cc(S(=O)(=O)N4CCN(C)CC4)ccc3OCC)nc12 [sildenafil]
thickness of internal granular layers and molecular layers of the cerebellum ([1]; oral sildenafil 2, 10 or 50 mg/kg twice daily 7 days): improvement in the overall thickness of these layers | VEGF expressing astrocytes in cerebellum ([1]; oral sildenafil): reduction of VEGF expressing astrocytes | myelin sheath thickness in corpus callosum and left external capsule ([2]; HI, all dosage): reverted the myelin sheath thickness back to levels comparable to sham vehicle rat animals | microvessel density in the white matter [2]: no changes | number of total and mature oligodendrocytes in the left external capsule ([2]; after sildenafil): no changes | reactive astrocytosis and microgliosis in the corpus callosum and left external capsule ([2]; higher doses of sildenafil): significant reduction | number of mature oligodendrocytes in the corpus callosum ([2]; sildenafil 50 mg/kg): significantly increased | number of total oligodendrocytes in the corpus callosum ([2]; sildenafil 50 mg/kg): significantly increased | microvessel density near the infarct boundary zone, median (IQR) [3]: 211 (182; 221) | neuronal number in the dentate gyrus ([4]; HI, 50 mg/kg, vs sham vehicle): significantly increases | number of activated microglia and reactive astrocytes in CA1 and dentate gyrus of the hippocampus ([4]; HI, higher doses (10 mg/kg and 50 mg/kg)): significantly reduced | vascular density in hippocampus ([4]; treatment groups vs control group): no changes in vascular density | print length (gait) ([5]; high-dose of sildenafil): showed an increase | neurological deficits as measured by the gait analysis ([5]; sildenafil even in small doses): improvement of the neurological deficits | PDE6 inhibition (PDE6): inhibits PDE6, but with a reduced efficiency
